Assay results reported in patent US5849729A, “Use of hydrolyzed cocoa butter for percutaneous absorption” (Hershey Foods Corporation, priority 1995, dated 1998).
Several values for one entry are separate records, joined by “and”; a condition that tells them apart may be missing. Equal entries are not always repeated. Entries after “also recorded” stand apart in the source; their conditions may differ.

What was measured:
[1] = currently available / commercial formulations, trunk skin; cited from earlier work
[2] = In-vitro percutaneous absorption of retinoic acid and triamcinolone acetonide from two cocoa butter vehicles (Franz cells, 48 h); conditions: for % Abs (% Absorbed) / % Absorbed / total absorption: percent of applied dose
Description: The objective of this study was to measure the permeation of retinoic acid and triamcinolone acetonide through human skin in-vitro from two cocoa butter vehicles.
Two cocoa butter vehicles supplied by Hershey Foods Corporation were utilized: (1) pure cocoa butter and (2) partially hydrolyzed cocoa butter emulsion. Radioactive [11,12-^3 H] [retinoic acid (NET 920, Lot 2930-067, specific activity 1 mCi/ml) and [6,7-^3 H]-triamcinolone acetonide (NET 470, Lot 2904-170, specific activity 1 mCi/ml) were obtained from Dupont-New England Nuclear Corporation, Boston, Mass.
Each of the two cocoa butter vehicles was spiked separately with ^3 H-retinoic acid and ^3 H-Triamcinolone acetonide to give a total of four radioactive formulations for study. This was done by adding 25 μl (containing 25 μCi) of each tracer solution to approximately 1 gram of each vehicle and mixing with the tip of the dispensing micropipette. The pure cocoa butter vehicle was liquified by holding it under warm tap water prior to spiking. This was not done with the partially hydrolyzed cocoa butter emulsion. Neither formulation was used for three days after spiking to allow for diffusional mixing to take place. Final radioactive concentrations of each formulation were: […]
Human trunk skin without obvious signs of disease was used throughout. It was obtained within 24 hours of death, dermatomed to a thickness of approximately 0.25 mm, cryopreserved and sealed in water vapor-impermeableplastic bags. It was stored at -70° C. until the day of use then thawed by placing the bag in 37° C. water.
Skin from a single donor was cut into multiple sections large enough to fit on 0.8 cm^2 Franz cells. The dermal chamber was filled with isotonic saline, pH 7.4, into which a small magnetic stirring bar was placed. The epidermal chamber was left open to the ambient laboratory environment, approximately 22° C. and 40-60% RH. The cells were placed in a diffusion apparatus in which the dermal receptor solution was stirred magnetically at 600 RPM and its temperature maintained at 37° C.
To assure the integrity of each skin section, its permeability to tritiated water was determined before application of the test formulations. Following a brief (0.5-1 hour) equilibration period, 150 μl ^3 H2 O (specific activity 0.3 μCi/ml) was layered across the top of the skin section so that the entire exposed surface was covered. After 5 minutes the aqueous layer was removed and the surface of the skin carefully blotted dry. At t=0.5 hour the saline receptor phase was removed and analyzed for radioactive content by liquid scintillation counting. Skin specimens in which absorption of ^3 H2 O was less than 1.25 μl were considered acceptable.
Subsequently, each test formulation was applied at a target dose of 10 mg (cream) or 10 μl (butter). The cream formulation (partially hydrolyzed cocoa butter emulsion) was applied from the smooth, rounded-tip of a glass rod, the exact amount determined by weighing the rod before and after application. The butter formulation (pure cocoa butter) was first liquified under warm tap water, allowed to cool to room temperature, then applied with a 10 μl positive displacement micropipette prior to resolidifying. At 4, 8, 12, 24, 36 and 48 hours the receptor solution was removed in its entirety, replaced with fresh solution, and a 1 ml aliquot taken and assayed for radioactive content by liquid scintillation counting.
A 1 ml aliquot of each receptor sample containing ^3 H2 O, ^3 H-retinoic acid, or ^3 H-triamcinolone acetonide was placed in a 7 ml glass scintillation vial and gelled by the addition of 5 ml Opti-Fluor (Packard Instrument Co., Meriden, Conn.). These were counted in a Packard Tri-Carb Model 1900CA Liquid scintillation Analyzer equipped with internal standard and automatic quench correction.

[3] = butter (pure cocoa butter), 48 h, individual skin sections
[4] = butter, 48 h, average of three donors
[5] = butter, 48 h, average per skin donor (n=4), listed as RETINOIC ACID

For `CC1=C(/C=C/C(C)=C/C=C/C(C)=C/C(=O)O)C(C)(C)CCC1` [retinoic acid], the “total absorption from currently available formulations” value [1] is listed as 1-5 % of the dose, the “absorption period versus current formulations” value ([2]; admixed with cocoa butter or partially hydrolyzed cocoa butter emulsion, in words) is listed as “able to sustain a longer absorption period than has been demonstrated with current retinoic acid formulations” and the “steady state rate of absorption” value ([2]; both cocoa butter formulations) is listed as “approximately 15 ng/cm^2 /hr”. For the same molecule, the “rate of absorption profile / flux” value ([2]; both cocoa butter formulations, in words) was “higher than generally seen with other retinoic acid formulations; also recorded: relatively high flux rates”, the “Penet (Total Penetration)” value [2, 3] was 729.80 and 954.98 and 769.08 and 941.38 and 725.19 and 871.67 and 741.10 and 1267.53 and 552.40 and 552.46 and 685.17 and 944.68 and the “% Abs (% Absorbed)” value [2, 3] was 14.59% and 19.10% and 15.38% and 18.82% and 14.50% and 17.43% and 14.82% and 25.35% and 11.05% and 13.70% and 18.89%. The “Rate of absorption, R1” value ([2]; butter (pure cocoa butter), sample R1, mid-t 2 h, individual skin sections) was 36.55 ng/cm^2 /hr and 48.20 ng/cm^2 /hr and 39.43 ng/cm^2 /hr and 51.22 ng/cm^2 /hr and 55.25 ng/cm^2 /hr and 66.87 ng/cm^2 /hr and 50.92 ng/cm^2 /hr and 79.43 ng/cm^2 /hr and 40.64 ng/cm^2 /hr and 39.67 ng/cm^2 /hr and 51.71 ng/cm^2 /hr and 75.03 ng/cm^2 /hr, the “Rate of absorption, R3” value ([2]; butter (pure cocoa butter), sample R3, mid-t 10 h, individual skin sections) was 23.55 ng/cm^2 /hr and 28.39 ng/cm^2 /hr and 24.05 ng/cm^2 /hr and 29.61 ng/cm^2 /hr and 22.32 ng/cm^2 /hr and 21.53 ng/cm^2 /hr and 20.69 ng/cm^2 /hr and 34.12 ng/cm^2 /hr and 16.59 ng/cm^2 /hr and 15.24 ng/cm^2 /hr and 17.69 ng/cm^2 /hr and 25.75 ng/cm^2 /hr and the “Rate of absorption, R4” value ([2]; butter (pure cocoa butter), sample R4, mid-t 18 h, individual skin sections) was 14.13 ng/cm^2 /hr and 23.33 ng/cm^2 /hr and 15.22 ng/cm^2 /hr and 18.56 ng/cm^2 /hr and 18.11 ng/cm^2 /hr and 20.56 ng/cm^2 /hr and 20.18 ng/cm^2 /hr and 33.78 ng/cm^2 /hr and 15.63 ng/cm^2 /hr and 14.10 ng/cm^2 /hr and 16.64 ng/cm^2 /hr and 23.97 ng/cm^2 /hr. The “Rate of absorption, R5” value ([2]; butter (pure cocoa butter), sample R5, mid-t 30 h, individual skin sections) was 16.12 ng/cm^2 /hr and 19.00 ng/cm^2 /hr and 18.23 ng/cm^2 /hr and 16.25 ng/cm^2 /hr and 11.93 ng/cm^2 /hr and 15.30 ng/cm^2 /hr and 12.34 ng/cm^2 /hr and 23.05 ng/cm^2 /hr and 8.38 ng/cm^2 /hr and 9.60 ng/cm^2 /hr and 10.78 ng/cm^2 /hr and 16.34 ng/cm^2 /hr, the “Rate of absorption, R6” value ([2]; butter (pure cocoa butter), sample R6, mid-t 42 h, individual skin sections) was 15.54 ng/cm^2 /hr and 17.94 ng/cm^2 /hr and 14.86 ng/cm^2 /hr and 24.92 ng/cm^2 /hr and 11.83 ng/cm^2 /hr and 16.34 ng/cm^2 /hr and 13.15 ng/cm^2 /hr and 24.58 ng/cm^2 /hr and 8.20 ng/cm^2 /hr and 9.16 ng/cm^2 /hr and 10.53 ng/cm^2 /hr and 14.03 ng/cm^2 /hr and the “Total Penetration” value [2, 4] was 811.29. The “Penet (Total Penetration)” value [2, 5] was 848.81 and 901.37 and 683.68, the “Penet (Total Penetration)” value ([2]; butter, 48 h, average per skin donor (n=4), listed as Retinoic Acid) was 683.68 and 901.37 and 848.81 and the “Rate of absorption, R1” value ([2]; butter, R1, mid-t 2 h, average of three donors) was 52.91 ng/cm^2 /hr. For the same molecule, the “Rate of absorption, R1” value ([2]; butter, R1, mid-t 2 h, average per skin donor (n=4), listed as RETINOIC ACID) was 43.85 ng/cm^2 /hr and 63.12 ng/cm^2 /hr and 51.76 ng/cm^2 /hr, the “Rate of absorption, R1” value ([2]; butter, R1, mid-t 2 h, average per skin donor (n=4), listed as Retinoic Acid) was 51.76 ng/cm^2 /hr and 63.12 ng/cm^2 /hr and 43.85 ng/cm^2 /hr and the “Rate of absorption, R3” value ([2]; butter, R3, mid-t 10 h, average of three donors) was 23.30 ng/cm^2 /hr. The “Rate of absorption, R3” value ([2]; butter, R3, mid-t 10 h, average per skin donor (n=4), listed as RETINOIC ACID) was 26.40 ng/cm^2 /hr and 24.67 ng/cm^2 /hr and 18.82 ng/cm^2 /hr, the “Rate of absorption, R3” value ([2]; butter, R3, mid-t 10 h, average per skin donor (n=4), listed as Retinoic Acid) was 18.82 ng/cm^2 /hr and 24.67 ng/cm^2 /hr and 26.40 ng/cm^2 /hr and the “Rate of absorption, R4” value ([2]; butter, R4, mid-t 18 h, average of three donors) was 19.52 ng/cm^2 /hr. For the same molecule, the “Rate of absorption, R4” value ([2]; butter, R4, mid-t 18 h, average per skin donor (n=4), listed as RETINOIC ACID) was 17.81 ng/cm^2 /hr and 23.16 ng/cm^2 /hr and 17.59 ng/cm^2 /hr, the “Rate of absorption, R4” value ([2]; butter, R4, mid-t 18 h, average per skin donor (n=4), listed as Retinoic Acid) was 17.59 ng/cm^2 /hr and 23.16 ng/cm^2 /hr and 17.81 ng/cm^2 /hr and the “Rate of absorption, R5” value ([2]; butter, R5, mid-t 30 h, average of three donors) was 14.78 ng/cm^2 /hr. The “Rate of absorption, R5” value ([2]; butter, R5, mid-t 30 h, average per skin donor (n=4), listed as RETINOIC ACID) was 17.40 ng/cm^2 /hr and 15.66 ng/cm^2 /hr and 11.28 ng/cm^2 /hr, the “Rate of absorption, R5” value ([2]; butter, R5, mid-t 30 h, average per skin donor (n=4), listed as Retinoic Acid) was 11.28 ng/cm^2 /hr and 15.66 ng/cm^2 /hr and 17.40 ng/cm^2 /hr and the “Rate of absorption, R6” value ([2]; butter, R6, mid-t 42 h, average of three donors) was 15.09 ng/cm^2 /hr. The “Rate of absorption, R6” value ([2]; butter, R6, mid-t 42 h, average per skin donor (n=4), listed as RETINOIC ACID) was 18.31 ng/cm^2 /hr and 16.48 ng/cm^2 /hr and 10.48 ng/cm^2 /hr, the “Rate of absorption, R6” value ([2]; butter, R6, mid-t 42 h, average per skin donor (n=4), listed as Retinoic Acid) was 10.48 ng/cm^2 /hr and 16.48 ng/cm^2 /hr and 18.31 ng/cm^2 /hr and the “% Absorbed / total absorption” value [2, 4] was 16.2%. For the same molecule, the “% Absorbed / total absorption” value ([2]; butter, 48 h, average of three donors, listed as Retinoic Acid) was 16.22% and the “% Abs (% Absorbed)” value [2, 5] was 16.97% and 18.02% and 13.67%.
